Reference: ChEMBL document CHEMBL3045802, “Synthesis and in vitro antitumor activity of new quinoline, pyrimido[4,5-b]quinoline, [1,2,3]triazino[4,5-b]quinoline, and [1,2,4]triazolo[2,3:3,4]pyrimido[6,5-b]quinoline analogs” (2013)

Columns and labels:
Format in all cases: functional
SK-MEL-28 = assay: Cytotoxicity against Homo sapiens (human) SK-MEL-28 cells assessed as growth inhibition at 10 uM after 48 hr by coulter counter analysis; conditions: SK-MEL-28, 48 h, read-out: GI
MDA-MB-435 = assay: Cytotoxicity against Homo sapiens (human) MDA-MB-435 cells assessed as growth inhibition at 10 uM after 48 hr by coulter counter analysis; conditions: MDA-MB-435, 48 h, read-out: GI
M14 = assay: Cytotoxicity against Homo sapiens (human) M14 cells assessed as growth inhibition at 10 uM after 48 hr by coulter counter analysis; conditions: M14, 48 h, read-out: GI
LOX IMVI = assay: Cytotoxicity against Homo sapiens (human) LOXIMVI cells assessed as growth inhibition at 10 uM after 48 hr by coulter counter analysis; conditions: read-out: GI
SNB-19 = assay: Cytotoxicity against Homo sapiens (human) SNB19 cells assessed as growth inhibition at 10 uM after 48 hr by coulter counter analysis; conditions: SNB-19, 48 h, read-out: GI
SF-539 = assay: Cytotoxicity against Homo sapiens (human) SF539 cells assessed as growth inhibition at 10 uM after 48 hr by coulter counter analysis; conditions: SF-539, 48 h, read-out: GI
SF-295 = assay: Cytotoxicity against Homo sapiens (human) SF295 cells assessed as growth inhibition at 10 uM after 48 hr by coulter counter analysis; conditions: SF-295, 48 h, read-out: GI
OVCAR-4 = assay: Cytotoxicity against Homo sapiens (human) OVCAR4 cells assessed as growth inhibition at 10 uM after 48 hr by coulter counter analysis; conditions: OVCAR-4, 48 h, read-out: GI
OVCAR-3 = assay: Cytotoxicity against Homo sapiens (human) OVCAR3 cells assessed as growth inhibition at 10 uM after 48 hr by coulter counter analysis; conditions: OVCAR-3, 48 h, read-out: GI
IGROV-1 = assay: Cytotoxicity against Homo sapiens (human) IGROV1 cells assessed as growth inhibition at 10 uM after 48 hr by coulter counter analysis; conditions: IGROV-1, 48 h, read-out: GI
UACC-257 = assay: Cytotoxicity against Homo sapiens (human) UACC257 cells assessed as growth inhibition at 10 uM after 48 hr by coulter counter analysis; conditions: UACC-257, 48 h, read-out: GI
MDA-MB-468 = assay: Cytotoxicity against Homo sapiens (human) MDA-MB-468 cells assessed as growth inhibition at 10 uM after 48 hr by coulter counter analysis; conditions: MDA-MB-468, 48 h, read-out: GI
T47D = assay: Cytotoxicity against Homo sapiens (human) T47D cells assessed as growth inhibition at 10 uM after 48 hr by coulter counter analysis; conditions: read-out: GI
Hs-578T = assay: Cytotoxicity against Homo sapiens (human) Hs578T cells assessed as growth inhibition at 10 uM after 48 hr by coulter counter analysis; conditions: read-out: GI
MDA-MB-231 = assay: Cytotoxicity against Homo sapiens (human) MDA-MB-231 cells assessed as growth inhibition at 10 uM after 48 hr by coulter counter analysis; conditions: MDA-MB-231, 48 h, read-out: GI
MCF7 = assay: Cytotoxicity against Homo sapiens (human) MCF7 cells assessed as growth inhibition at 10 uM after 48 hr by coulter counter analysis; conditions: MCF7, 48 h, read-out: GI
DU-145 = assay: Cytotoxicity against Homo sapiens (human) DU145 cells assessed as growth inhibition at 10 uM after 48 hr by coulter counter analysis; conditions: DU-145, 48 h, read-out: GI
TK-10 = assay: Cytotoxicity against Homo sapiens (human) TK10 cells assessed as growth inhibition at 10 uM after 48 hr by coulter counter analysis; conditions: TK-10, 48 h, read-out: GI
SN12C = assay: Cytotoxicity against Homo sapiens (human) SN12C cells assessed as growth inhibition at 10 uM after 48 hr by coulter counter analysis; conditions: read-out: GI
RXF 393 = assay: Cytotoxicity against Homo sapiens (human) RXF393 cells assessed as growth inhibition at 10 uM after 48 hr by coulter counter analysis; conditions: RXF 393, 48 h, read-out: GI
OVCAR-8 = assay: Cytotoxicity against Homo sapiens (human) OVCAR8 cells assessed as growth inhibition at 10 uM after 48 hr by coulter counter analysis; conditions: OVCAR-8, 48 h, read-out: GI
OVCAR-5 = assay: Cytotoxicity against Homo sapiens (human) OVCAR5 cells assessed as growth inhibition at 10 uM after 48 hr by coulter counter analysis; conditions: OVCAR-5, 48 h, read-out: GI
HCT-116 = assay: Cytotoxicity against Homo sapiens (human) HCT116 cells assessed as growth inhibition at 10 uM after 48 hr by coulter counter analysis; conditions: HCT-116, 48 h, read-out: GI
HCC 2998 = assay: Cytotoxicity against Homo sapiens (human) HCC2998 cells assessed as growth inhibition at 10 uM after 48 hr by coulter counter analysis; conditions: HCC 2998, 48 h, read-out: GI
COLO 205 = assay: Cytotoxicity against Homo sapiens (human) COLO205 cells assessed as growth inhibition at 10 uM after 48 hr by coulter counter analysis; conditions: COLO 205, 48 h, read-out: GI
NCI-H460 = assay: Cytotoxicity against Homo sapiens (human) NCI-H460 cells assessed as growth inhibition at 10 uM after 48 hr by coulter counter analysis; conditions: NCI-H460, 48 h, read-out: GI
NCI-H23 = assay: Cytotoxicity against Homo sapiens (human) NCI-H23 cells assessed as growth inhibition at 10 uM after 48 hr by coulter counter analysis; conditions: NCI-H23, 48 h, read-out: GI
HOP-92 = assay: Cytotoxicity against Homo sapiens (human) HOP92 cells assessed as growth inhibition at 10 uM after 48 hr by coulter counter analysis; conditions: HOP-92, 48 h, read-out: GI
A549 = assay: Cytotoxicity against Homo sapiens (human) A549 cells assessed as growth inhibition at 10 uM after 48 hr by coulter counter analysis; conditions: A549, 48 h, read-out: GI
SR = assay: Cytotoxicity against Homo sapiens (human) SR cells assessed as growth inhibition at 10 uM after 48 hr by coulter counter analysis; conditions: read-out: GI
RPMI-8226 = assay: Cytotoxicity against Homo sapiens (human) RPMI8226 cells assessed as growth inhibition at 10 uM after 48 hr by coulter counter analysis; conditions: RPMI-8226, 48 h, read-out: GI
MOLT-4 = assay: Cytotoxicity against Homo sapiens (human) MOLT4 cells assessed as growth inhibition at 10 uM after 48 hr by coulter counter analysis; conditions: MOLT-4, 48 h, read-out: GI
K562 = assay: Cytotoxicity against Homo sapiens (human) K562 cells assessed as growth inhibition at 10 uM after 48 hr by coulter counter analysis; conditions: K562, 48 h, read-out: GI
BT-549 = assay: Cytotoxicity against Homo sapiens (human) BT549 cells assessed as growth inhibition at 10 uM after 48 hr by coulter counter analysis; conditions: BT-549, 48 h, read-out: GI

| SMILES | inhibition of growth at 10 µM (SK-MEL-28) [%] | inhibition of growth at 10 µM (MDA-MB-435) [%] | inhibition of growth at 10 µM (M14) [%] | inhibition of growth at 10 µM (LOX IMVI) [%] | inhibition of growth at 10 µM (SNB-19) [%] | inhibition of growth at 10 µM (SF-539) [%] | inhibition of growth at 10 µM (SF-295) [%] | inhibition of growth at 10 µM (OVCAR-4) [%] | inhibition of growth at 10 µM (OVCAR-3) [%] | inhibition of growth at 10 µM (IGROV-1) [%] | inhibition of growth at 10 µM (UACC-257) [%] | inhibition of growth at 10 µM (MDA-MB-468) [%] | inhibition of growth at 10 µM (T47D) [%] | inhibition of growth at 10 µM (Hs-578T) [%] | inhibition of growth at 10 µM (MDA-MB-231) [%] | inhibition of growth at 10 µM (MCF7) [%] | inhibition of growth at 10 µM (DU-145) [%] | inhibition of growth at 10 µM (TK-10) [%] | inhibition of growth at 10 µM (SN12C) [%] | inhibition of growth at 10 µM (RXF 393) [%] | other results |
| --- | --- | --- | --- | --- | --- | --- | --- | --- | --- | --- | --- | --- | --- | --- | --- | --- | --- | --- | --- | --- | --- |
| COc1ccc(-c2nc3c(c(=O)[nH]2)C(c2ccc(OC)c(OC)c2)C2=C(CCCC2)N3)cc1OC (stereo not given) | < 10 | < 10 | < 10 | 21.1 | < 10 | 14.5 | < 10 | 10.8 | < 10 | < 10 | < 10 | 28.5 | 28.3 | < 10 | < 10 | 34.3 | < 10 | < 10 | 15 | 10.3 | inhibition of growth at 10 µM (OVCAR-8): 12.1%; inhibition of growth at 10 µM (OVCAR-5): < 10%; inhibition of growth at 10 µM (HCT-116): < 10%; inhibition of growth at 10 µM (HCC 2998): < 10%; inhibition of growth at 10 µM (COLO 205): 10.3%; inhibition of growth at 10 µM (NCI-H460): < 10%; inhibition of growth at 10 µM (NCI-H23): < 10%; inhibition of growth at 10 µM (HOP-92): 26.3%; inhibition of growth at 10 µM (A549): < 10%; inhibition of growth at 10 µM (SR): 21.4%; inhibition of growth at 10 µM (RPMI-8226): 10.8%; inhibition of growth at 10 µM (MOLT-4): < 10%; inhibition of growth at 10 µM (K562): < 10% |
| Oc1ccc(-c2nc3c4c(ncn3n2)NC2=C(CCCC2)C4c2ccc(Cl)cc2)cc1 (stereo not given) | < 10 | < 10 | < 10 | 14.3 | < 10 | < 10 | < 10 | < 10 | < 10 | < 10 | < 10 | < 10 | 15.8 | 14.1 | 20.5 | < 10 | < 10 | < 10 | < 10 | < 10 | inhibition of growth at 10 µM (BT-549): < 10%; inhibition of growth at 10 µM (OVCAR-8): < 10%; inhibition of growth at 10 µM (OVCAR-5): < 10%; inhibition of growth at 10 µM (HCT-116): < 10%; inhibition of growth at 10 µM (HCC 2998): < 10%; inhibition of growth at 10 µM (COLO 205): < 10%; inhibition of growth at 10 µM (NCI-H460): < 10%; inhibition of growth at 10 µM (NCI-H23): 12.9%; inhibition of growth at 10 µM (HOP-92): 42.1%; inhibition of growth at 10 µM (A549): < 10%; inhibition of growth at 10 µM (SR): < 10%; inhibition of growth at 10 µM (RPMI-8226): 13.2%; inhibition of growth at 10 µM (MOLT-4): < 10%; inhibition of growth at 10 µM (K562): < 10% |
| COc1ccc(C2C3=C(CCCC3)Nc3ncn4nc(-c5ccccc5)nc4c32)cc1OC (stereo not given) | < 10 | < 10 | < 10 | < 10 | < 10 | < 10 | 29.6 | < 10 | < 10 | < 10 | < 10 | 23.2 | 26.2 | < 10 | 12.6 | < 10 | < 10 | < 10 | < 10 | 19.9 | inhibition of growth at 10 µM (BT-549): < 10%; inhibition of growth at 10 µM (OVCAR-8): 14.7%; inhibition of growth at 10 µM (OVCAR-5): 11.7%; inhibition of growth at 10 µM (HCT-116): < 10%; inhibition of growth at 10 µM (HCC 2998): < 10%; inhibition of growth at 10 µM (COLO 205): < 10%; inhibition of growth at 10 µM (NCI-H460): < 10%; inhibition of growth at 10 µM (NCI-H23): 10.7%; inhibition of growth at 10 µM (HOP-92): 36.8%; inhibition of growth at 10 µM (A549): 12.3%; inhibition of growth at 10 µM (SR): < 10%; inhibition of growth at 10 µM (RPMI-8226): 10.5%; inhibition of growth at 10 µM (MOLT-4): 19.8%; inhibition of growth at 10 µM (K562): < 10% |
| COc1ccc(C2C3=C(CCCC3)Nc3ncn4nc(-c5ccc(O)cc5)nc4c32)cc1OC (stereo not given) | < 10 | < 10 | < 10 | < 10 | < 10 | < 10 | < 10 | < 10 | < 10 | < 10 | < 10 | 21.4 | 18.8 | < 10 | 12.8 | < 10 | < 10 | < 10 | < 10 | < 10 | inhibition of growth at 10 µM (BT-549): < 10%; inhibition of growth at 10 µM (OVCAR-8): < 10%; inhibition of growth at 10 µM (OVCAR-5): < 10%; inhibition of growth at 10 µM (HCT-116): < 10%; inhibition of growth at 10 µM (HCC 2998): < 10%; inhibition of growth at 10 µM (COLO 205): < 10%; inhibition of growth at 10 µM (NCI-H460): < 10%; inhibition of growth at 10 µM (NCI-H23): < 10%; inhibition of growth at 10 µM (HOP-92): 12.2%; inhibition of growth at 10 µM (A549): < 10%; inhibition of growth at 10 µM (SR): < 10%; inhibition of growth at 10 µM (RPMI-8226): < 10%; inhibition of growth at 10 µM (MOLT-4): 12.3%; inhibition of growth at 10 µM (K562): < 10% |
